“Also recorded” adds a separate entry of the source.
What was measured:
[1] = tested on: tcdB; settings: 16.7 mM, mRNA harvested after 72 hours of growth
[2] = tested on: C. difficile; settings: added to the culture medium, concentration-dependent, reference (32); cited from earlier work
[3] = tested on: C. difficile (VPI10463) toxin A and toxin B; test: Extracellular toxin in cell free supernatants by SDS-PAGE with GelCode Blue staining; assay type: cell-based, Clostridium difficile; settings: 16.7 mM; for toxin levels in media supernatants (band larger than 225 kDa): 72 hour growth period, 7.5% gel, versus control
Method: FIG. 2 illustrates that toxin production occurs earlier and is increased with the addition of L-proline or glycine to the culture media of C. difficile, but is diminished with L-hydroxyproline. C. difficile (VPI10463) culture media was collected by centrifugation at the indicated time points. Cell free supernatants were filtered (0.2 μm filter) and equal volumes (50 μL) were separated by SDS-PAGE and stained overnight with GelCode Blue. Gel migration was compared with that of purified toxin A (List Biologicals).
For analysis of extracellular toxins, 50 μL aliquots of cell free supernatant from each C. difficile culture across a 72 hour growth study was analyzed by sodium dodecyl sulfate-polyacrylamide gel electrophoresis (SDS-PAGE) (7.5% polyacrylamide). The separated proteins were visualized after staining overnight with GelCode Blue (Thermo Scientific, Waltham, Mass.).

[4] = tested on: tcdA; settings: 16.7 mM, mRNA harvested after 72 hours of growth
[5] = tested on: C. difficile spore; settings: alongside taurocholate, reference (45); cited from earlier work
[6] = tested on: C. difficile (VPI10463); settings: stationary phase (24 to 72 hours), 16.7 mM; versus control and the other amino acids
Method: Optical density (FIG. 1A) was followed for 72 hours after inoculation. Total protein (FIG. 1B) and extracellular protein (FIG. 1C) were quantified in cell free supernatants according to the method described by Bradford (46).
Optical density measurements of cultures at 600 nm were determined using a Molecular Devices SpectraMax 190 96-well plate reader at the times indicated for each experiment. Cultures were centrifuged at 16,100×g for five minutes. The resulting cell free supernatants were filtered (0.2 μm) and assayed for protein as described by Bradford (46) using bovine serum albumin (Thermo Scientific, Rockford, Ill.) as a standard.

[7] = tested on: C. difficile (VPI10463); test: Growth curve of C. difficile in rich medium (TYGSe), optical density at 600 nm; assay type: cell-based, Clostridium difficile; settings: VPI10463, rich medium plus 16.7 mM amino acid, 72 hour growth period

| SMILES | tcdB transcript relative to control cells [1] | intracellular toxin levels [2] | toxin levels in media supernatants (band larger than 225 kDa) [3] | tcdA transcript relative to control cells [4] | spore germination [5] | extracellular protein levels [6] | toxin produced earlier ([3]; onset of toxin band) | reduction in tcdB transcription ([1]; relative to control cells) | growth (in words) [7] | reduction in tcdA transcription ([4]; relative to control cells) |
| --- | --- | --- | --- | --- | --- | --- | --- | --- | --- | --- |
| O=C(O)[C@@H]1CCCN1 [L-proline] | approximately three | significantly reduced | higher toxin levels than the control | approximately three |  |  |  |  |  |  |
| NCC(=O)O [glycine] | nine |  | higher toxin levels than the control | nine | potent spore co-germinant | significantly higher | approximately 24 hours |  |  |  |
| O=C(O)[C@@H]1CC(O)CN1 (stereo partly drawn) [L-hydroxyproline, L-4-hydroxyproline] |  |  | no band corresponding to toxin was visible |  |  |  |  | ≥ 75% | largest increase in growth; also recorded: comparable growth | ≥ 75% |
| N[C@@H](CS)C(=O)O [L-cysteine] |  | significantly reduced |  |  |  |  |  |  |  |  |
